The values below come from patent US20240123073A1, “NOVEL RIPK1 KINASE TARGETING PROTACS AND METHODS OF USE THEREOF” (Baylor College of Medicine, priority 2020, published 2024).

In the test the target is T1, RIPK1 (Homo sapiens, UniProt Q13546).
T1 construct: endogenous in cells
T1 sequence (Q13546 1-671): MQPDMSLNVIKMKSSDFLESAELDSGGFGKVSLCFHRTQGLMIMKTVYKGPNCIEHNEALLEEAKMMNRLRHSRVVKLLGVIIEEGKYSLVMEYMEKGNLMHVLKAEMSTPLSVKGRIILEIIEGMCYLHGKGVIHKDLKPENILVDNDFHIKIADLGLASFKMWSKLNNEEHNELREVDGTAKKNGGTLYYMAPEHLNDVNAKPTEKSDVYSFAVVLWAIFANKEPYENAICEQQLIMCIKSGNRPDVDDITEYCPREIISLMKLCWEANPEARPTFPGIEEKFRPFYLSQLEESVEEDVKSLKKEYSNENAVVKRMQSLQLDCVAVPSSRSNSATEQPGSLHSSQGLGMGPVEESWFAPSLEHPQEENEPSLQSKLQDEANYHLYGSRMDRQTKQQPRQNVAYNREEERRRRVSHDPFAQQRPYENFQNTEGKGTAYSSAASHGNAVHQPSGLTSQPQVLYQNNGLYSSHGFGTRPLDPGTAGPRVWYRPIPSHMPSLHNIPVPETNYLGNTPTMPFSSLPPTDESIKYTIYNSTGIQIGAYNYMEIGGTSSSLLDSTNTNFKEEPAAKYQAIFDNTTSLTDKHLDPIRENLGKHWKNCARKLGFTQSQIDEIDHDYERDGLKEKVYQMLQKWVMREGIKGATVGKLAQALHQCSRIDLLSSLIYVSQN
The test is described as follows: RIPK1 degradation Western Blot assay. The format is cell-based. The note with it: human cells, 24 h incubation at 37° C., read-out: Degradation Activity (DC50, concentration at which 50% of RIPK1 kinase has been degraded). As to the method: Cells were seeded in 6-well cell culture plates overnight prior to treatment and incubated with the indicated doses of compounds for 24 h at 37° C. Then, cell pellets were collected and resuspended with RIPA lysis buffer, which was added with 1% […] inhibitor and phosphatase inhibitor Cocktail. Whole-cell protein lysates were sonicated on ice for 20 seconds and centrifuged at 12 000 rpm for 20 min at 4° C. The supernatants were determined using the BCA method. Proteins were separated by sodium dodecyl sulfate-polyacrylamide gel electrophoresis and transferred to polyvinylidene fluoride membranes. The membranes were incubated with blocking buffer for 1 h. Then, the membranes were incubated at 4° C. overnight with the primary antibodies. After washing, the membranes were incubated for 1 h at room temperature with the secondary antibody and washed again. Changes in protein expression was detected using an enhanced chemiluminescence detection reagent. RIPK1 antibody was purchased from Santa Cruz.
The activities of exemplary compounds as described herein, measured in terms of the degradation concentration (DC50 representing the concentration at which 50% of the target, in this case RIPK1 kinase, has been degraded), are provided in Table 11. In Table 11, a DC50 value less than 1 μM is indicated as an “A;” a DC50 value from 1 μM to 10 μM is indicated as a “B” and a DC50 value of greater than 10 μM is indicated as a “C.”
For orientation: Immunoblotting shows a protein as a band on a membrane.

Regarding `Cc1ncsc1-c1ccc([C@H](C)NC(=O)[C@@H]2C[C@@H](O)CN2C(=O)[C@@H](NC(=O)c2ccc(C#Cc3ccc(C(=O)NCCCn4cc(-c5ccc6c(c5)CCN6C(=O)Cc5cccc(OC(F)(F)F)c5)c5c(N)ncnc54)cc3)cn2)C(C)(C)C)cc1` [Compound 35], the DC50 was less than 1 µM.

As for `Cn1c(=O)n(C2CCC(=O)NC2=O)c2ccc(CCC(=O)N3CCC(N4CCC(C#Cc5ccc(C(=O)NCCCn6cc(-c7ccc8c(c7)CCN8C(=O)Cc7cccc(OC(F)(F)F)c7)c7c(N)ncnc76)cc5)CC4)CC3)cc21` (stereo not drawn) [Compound 78], the DC50 is less than 1 µM.

Take `O=C1CCC(C2C(=O)c3cccc(NCCOCCOCCOCCC(=O)N4CCC(C(=O)N5N=CCC5c5ccccc5)CC4)c3C2=O)C(=O)N1` (stereo not drawn) [Compound 11]: the DC50 is greater than 10 µM.

For the molecule `O=C1CCC(N2C(=O)c3cccc(NCCOCCOCCOCCNC(=O)c4ccc(-c5cc(N6CCC(C(=O)N7N=CCC7c7ccccc7)CC6)ncn5)cc4)c3C2=O)C(=O)N1` (stereo not drawn) [Compound 21, N-(2-(2-(2-(2-((2-(2,6-dioxopiperidin-3-yl)-1,3-dioxoisoindolin-4-yl)amino)ethoxy)ethoxy)ethoxy)ethyl)-4-(6-(4-(5-phenyl-4,5-dihydro-1H-pyrazole-1-carbonyl)piperidin-1-yl)pyrimidin-4-yl)benzamide], the DC50 was greater than 10 µM.

As to `Cc1ncsc1-c1ccc([C@H](C)NC(=O)[C@@H]2C[C@@H](O)CN2C(=O)[C@@H](NC(=O)CCC(=O)NCCCn2cc(-c3ccc4c(c3)CCN4C(=O)Cc3cccc(OC(F)(F)F)c3)c3c(N)ncnc32)C(C)(C)C)cc1` [Compound 1, N1-(3-(4-amino-5-(1-(2-(3-(trifluoromethoxy)phenyl)acetyl)indolin-5-yl)-7H-pyrrolo[2,3-d]pyrimidin-7-yl)propyl)-N4-((S)-1-((2S,4R)-4-hydroxy-2-(((S)-1-(4-(4 methylthiazol-5-yl)phenyl)ethyl)carbamoyl)pyrrolidin-1-yl)-3,3-dimethyl-1-oxobutan-2-yl)succinimide], the DC50 lay within 1 to 10 µM.

For the molecule `Cn1c(=O)n(C2CCC(=O)NC2=O)c2ccc(CCC(=O)N3CCC(C#Cc4ccc(C(=O)NCCCn5cc(-c6ccc7c(c6)CCN7C(=O)Cc6cccc(OC(F)(F)F)c6)c6c(N)ncnc65)cc4)CC3)cc21` (stereo not drawn) [Compound 80], the DC50 was less than 1 µM.

In the case of `Cn1c(=O)n(C2CCC(=O)NC2=O)c2ccc(CCC(=O)c3ccc(C#Cc4ccc(C(=O)NCCCn5cc(-c6ccc7c(c6)CCN7C(=O)Cc6cccc(OC(F)(F)F)c6)c6c(N)ncnc65)cc4)cn3)cc21` (stereo not drawn) [Compound 81], the DC50 is less than 1 µM.

Consider `O=C1CCC(C2C(=O)c3cccc(NCCOCCOCCC(=O)N4CCC(C(=O)N5N=CCC5c5ccccc5)CC4)c3C2=O)C(=O)N1` (stereo not drawn) [Compound 12], for which the DC50 is greater than 10 µM.

`Cc1ncsc1-c1ccc([C@H](C)NC(=O)[C@@H]2C[C@@H](O)CN2C(=O)[C@@H](NC(=O)CCN2CCC(C#Cc3ccc(C(=O)NCCCn4cc(-c5ccc6c(c5)CCN6C(=O)Cc5cccc(OC(F)(F)F)c5)c5c(N)ncnc54)cc3)CC2)C(C)(C)C)cc1` [Compound 36]: the DC50 is less than 1 µM.

As for `Cc1ncsc1-c1ccc([C@H](CC(=O)N2CCC(N3CCC(C#Cc4ccc(C(=O)NCCCn5cc(-c6ccc7c(c6)CCN7C(=O)Cc6cccc(OC(F)(F)F)c6)c6c(N)ncnc65)cc4)CC3)CC2)NC(=O)[C@@H]2C[C@@H](O)CN2C(=O)[C@@H](NC(=O)C2(F)CC2)C(C)(C)C)cc1` [Compound 45], the DC50 is less than 1 µM.

Consider `Cc1ncsc1-c1ccc([C@H](CC(=O)N2CCC(N3CCN(c4ccc(C#Cc5ccc(C(=O)NCCCn6cc(-c7ccc8c(c7)CCN8C(=O)Cc7cccc(OC(F)(F)F)c7)c7c(N)ncnc76)cc5)cn4)CC3)CC2)NC(=O)[C@@H]2C[C@@H](O)CN2C(=O)[C@@H](NC(=O)C2(F)CC2)C(C)(C)C)cc1` [Compound 47], for which the DC50 is greater than 10 µM.

Consider `Nc1ncnc2c1c(-c1ccc3c(c1)CCN3C(=O)Cc1cccc(OC(F)(F)F)c1)cn2CCCNC(=O)c1ccc(C#CC2CCN(C(=O)CN3CCC(c4ccc(NC5CCC(=O)NC5=O)cc4)CC3)CC2)cc1` (stereo not drawn) [Compound 69], for which the DC50 lay within 1 to 10 µM.

As to `Cc1ncsc1-c1ccc([C@H](C)NC(=O)[C@@H]2C[C@@H](O)CN2C(=O)[C@@H](NC(=O)CCc2ccc(C#Cc3ccc(CCC(=O)NCCCn4cc(-c5ccc6c(c5)CCN6C(=O)Cc5cccc(OC(F)(F)F)c5)c5c(N)ncnc54)cc3)cn2)C(C)(C)C)cc1` [Compound 34], the DC50 was less than 1 µM.

Turning to `Nc1ncnc2c1c(-c1ccc3c(c1)CCN3C(=O)Cc1cccc(OC(F)(F)F)c1)cn2CCCNC(=O)CCCCNC(=O)CN1CCC(c2ccc(NC3CCC(=O)NC3=O)cc2)CC1` (stereo not drawn) [Compound 62], the DC50 is less than 1 µM.

For the molecule `Cc1ncsc1-c1ccc([C@H](C)NC(=O)[C@@H]2C[C@@H](O)CN2C(=O)[C@@H](NC(=O)CCN2CC3(CC(Oc4ccc(C(=O)NCCCn5cc(-c6ccc7c(c6)CCN7C(=O)Cc6cccc(OC(F)(F)F)c6)c6c(N)ncnc65)cn4)C3)C2)C(C)(C)C)cc1` [Compound 38], the DC50 lay within 1 to 10 µM.

Turning to `O=C(NCCOCCC(=O)N1CCC(C(=O)N2N=CCC2c2ccccc2)CC1)[C@@H]1NC2(CCCCC2)[C@@]2(C(=O)Nc3cc(Cl)ccc32)[C@H]1c1cccc(Cl)c1F` (stereo partly drawn) [Compound 15, (3′R,4'S,5′R)-6″-chloro-4′-(3-chloro-2-fluorophenyl)-2″-oxo-N-(2-(3-oxo-3-(4-(5-phenyl-4,5-dihydro-1H-pyrazole-1-carbonyl)piperidin-1-yl)propoxy)ethyl)dispiro[cyclohexane-1,2′-pyrrolidine-3′,3″-indoline]-5′-carboxamide], the DC50 is 1 to 10 µM.

Turning to `Nc1ncnc2c1c(-c1ccc3c(c1)CCN3C(=O)Cc1cccc(OC(F)(F)F)c1)cn2CCCNC(=O)CCOCCOCCOCCNc1cccc2c1C(=O)C(C1CCC(=O)NC1=O)C2=O` (stereo not drawn) [Compound 8, N-(3-(4-amino-5-(1-(2-(3-(trifluoromethoxy)phenyl)acetyl)indolin-5-yl)-7H-pyrrolo[2,3-d]pyrimidin-7-yl)propyl)-3-(2-(2-(2-((2-(2,6-dioxopiperidin-3-yl)-1,3-dioxo-2,3-dihydro-1H-inden-4-yl)amino)ethoxy)ethoxy)ethoxy)propanamide], the DC50 is 1 to 10 µM.

Take `Cc1ncsc1-c1ccc([C@H](CC(=O)N2CCN(c3ccc(C#Cc4ccc(C(=O)NCCCn5cc(-c6ccc7c(c6)CCN7C(=O)Cc6cccc(OC(F)(F)F)c6)c6c(N)ncnc65)cc4)cn3)CC2)NC(=O)[C@@H]2C[C@@H](O)CN2C(=O)[C@@H](NC(=O)C2(F)CC2)C(C)(C)C)cc1` [Compound 46]: the DC50 was less than 1 µM.

`Cc1ncsc1-c1ccc([C@H](CC(=O)NCCCCCCCCC(=O)NCCCn2cc(-c3ccc4c(c3)CCN4C(=O)Cc3cccc(OC(F)(F)F)c3)c3c(N)ncnc32)NC(=O)[C@@H]2C[C@@H](O)CN2C(=O)[C@H](NC(=O)C2(F)CC2)C(C)(C)C)cc1` [Compound 40, (2S,4R)—N—((S)-3-((9-((3-(4-amino-5-(1-(2-(3-(trifluoromethoxy)phenyl)acetyl)indolin-5-yl)-7H-pyrrolo[2,3-d]pyrimidin-7-yl)propyl)amino)-9-oxononyl)amino)-1-(4-(4-methylthiazol-5-yl)phenyl)-3-oxopropyl)-1-((R)-2-(1-fluorocyclopropane-1-carboxamido)-3,3-dimethylbutanoyl)-4-hydroxypyrrolidine-2-carboxamide]: the DC50 was less than 1 µM.

In the case of `Nc1ncnc2c1c(-c1ccc3c(c1)CCN3C(=O)Cc1cccc(OC(F)(F)F)c1)cn2CCCNC(=O)c1ccc(C#Cc2ccc(N3CCN(C(=O)CN4CCC(c5ccc(NC6CCC(=O)NC6=O)cc5)CC4)CC3)nc2)cc1` (stereo not drawn) [Compound 67], the DC50 is less than 1 µM.

As to `Cc1ncsc1-c1ccc([C@H](C)NC(=O)[C@@H]2C[C@@H](O)CN2C(=O)[C@@H](NC(=O)CCOCCOCCOCCNC(=O)c2ccc(-c3cc(N4CCC(C(=O)N5N=CCC5c5ccccc5)CC4)ncn3)cc2)C(C)(C)C)cc1` (stereo partly drawn) [Compound 23, (2S,4R)-1-((16S)-16-(tert-butyl)-1,14-dioxo-1-(4-(6-(4-(5-phenyl-4,5-dihydro-1H-pyrazole-1-carbonyl)piperidin-1-yl)pyrimidin-4-yl)phenyl)-5,8,11-trioxa-2,15-diazaheptadecane-17-oyl)-4-hydroxy-N—((S)-1-(4-(4-methylthiazol-5-yl)phenyl)ethyl)pyrrolidine-2-carboxamide], the DC50 was greater than 10 µM.
